Laboratory results as given in BindingDB's records for doi:10.1021/jm701509k (Astrazeneca, 2008).

Molecular target: Hematopoietic prostaglandin D synthase (Homo sapiens, UniProt O60760)
Assay: In Vitro GST Activity Assay
Details: pH 7.2; 22 °C
Method: The PGDS glutathione-S-transferase (GST) activity was measured by using MonoChloroBimane (MCB) as a chromogenic substrate. The assay was run at 384-well format in reaction buffer containing enzyme and test compound. Then MCB and GSH were added for further incubation. After reaction was stopped, the fluorescence was measured (excitation: 390 nm; emission: 478 nm).

Hematopoietic prostaglandin D synthase, sequence (O60760 whole entry): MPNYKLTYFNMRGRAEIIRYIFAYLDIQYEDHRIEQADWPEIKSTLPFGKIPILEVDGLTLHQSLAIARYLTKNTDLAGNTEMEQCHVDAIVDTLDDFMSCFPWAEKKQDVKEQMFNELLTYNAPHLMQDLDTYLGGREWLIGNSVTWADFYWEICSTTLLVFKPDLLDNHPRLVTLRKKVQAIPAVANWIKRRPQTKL

| Compound | IC50 [µM] |
| --- | --- |
| COc1ccc(-c2cc3c(nn2)-c2ccccc2C3=O)cc1 | 3.8 |
| CCOC(=O)c1cc(OC)c(-c2ccccc2)nn1 [ethyl 5-methoxy-6-phenylpyridazine-3-carboxylate] | 45 |
